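Protocol summary: plate cells (96-well), add compound at 5 concentrations, incubate 48 h, interpolate endpoints linearly. GI50: concentration for 50% inhibition of growth.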 The source made the active and inactive calls. No stated cut-off is given here; in the data, active = GI50 up to about 1.1 µM and inactive = higher.
What was measured:
Assay in all cases: NCI anticancer screen, dose series, 48 h
UO-31 = system: UO-31
SN12C = system: SN12C
ACHN = system: ACHN
CCRF-CEM = system: CCRF-CEM
RXF 393 = system: RXF 393
LOX IMVI = system: LOX IMVI
MDA-MB-435 = system: MDA-MB-435
SK-MEL-2 = system: SK-MEL-2
NCI-H23 = system: NCI-H23
OVCAR-8 = system: OVCAR-8
IGROV-1 = system: IGROV-1
SK-MEL-28 = system: SK-MEL-28
HCT-116 = system: HCT-116
CAKI-1 = system: CAKI-1
Malme-3M = system: Malme-3M
SNB-75 = system: SNB-75
OVCAR-5 = system: OVCAR-5
MCF7 = system: MCF7
HCC 2998 = system: HCC 2998

Measured: GI50

COc1ccc(S(=O)(=O)Nc2ccc(-c3csc(N4C(=O)/C(=C/c5ccccc5)N=C4c4ccccc4)n3)cc2)cc1Cl
inactive: UO-31 5.62 µM | SN12C 65.6 µM | ACHN 34.8 µM | CCRF-CEM 43.5 µM | RXF 393 24.4 µM | LOX IMVI 32.5 µM | MDA-MB-435 27.5 µM | SK-MEL-2 25.9 µM | NCI-H23 23.2 µM | OVCAR-8 31.5 µM | IGROV-1 38.6 µM | SK-MEL-28 57.4 µM | HCT-116 35.3 µM | CAKI-1 62.8 µM | Malme-3M 38.3 µM | SNB-75 29.2 µM | OVCAR-5 47.2 µM | MCF7 36.8 µM

O=C1C(O)=C(CCCc2ccc(Oc3ccccc3)cc2)C(=O)c2ccccc21
inactive: UO-31 5.92 µM | SN12C 10.9 µM | ACHN 5.93 µM | CCRF-CEM 18.1 µM | RXF 393 14.4 µM | HCC 2998 25.7 µM | LOX IMVI 3.57 µM | SK-MEL-2 10.2 µM | NCI-H23 4.58 µM | OVCAR-8 7.76 µM | IGROV-1 6.19 µM | SK-MEL-28 17.9 µM | HCT-116 3.7 µM | CAKI-1 21.2 µM | Malme-3M 12.9 µM | SNB-75 24.4 µM | OVCAR-5 41.1 µM

COc1cc2cc3c4c(cc(OC)c(OC)c4c2cc1OC)CCN3C(=O)N(C)C
inactive: UO-31 > 100 µM | SN12C > 100 µM | ACHN 75.5 µM | CCRF-CEM 96.6 µM | RXF 393 > 100 µM | HCC 2998 > 100 µM | LOX IMVI > 100 µM | SK-MEL-2 > 100 µM | NCI-H23 > 10 µM | OVCAR-8 > 100 µM | IGROV-1 > 100 µM | SK-MEL-28 27.9 µM | HCT-116 > 100 µM | CAKI-1 34.8 µM | Malme-3M 59.3 µM | SNB-75 19.5 µM | OVCAR-5 > 100 µM

O=C(CC(=O)c1ccccc1)C(=O)Nc1ccc(Cl)cc1
inactive: UO-31 > 100 µM | SN12C > 100 µM | ACHN > 100 µM | CCRF-CEM > 100 µM | RXF 393 > 100 µM | HCC 2998 > 64.3 µM | LOX IMVI > 42 µM | SK-MEL-2 > 100 µM | NCI-H23 > 100 µM | OVCAR-8 > 100 µM | IGROV-1 > 100 µM | SK-MEL-28 > 100 µM | HCT-116 > 42.8 µM | CAKI-1 > 100 µM | Malme-3M > 100 µM | SNB-75 > 64 µM | OVCAR-5 > 100 µM

O=C1/C(=C/c2ccc(Cl)cc2)N=C(c2ccccc2)N1c1ccc(S(=O)(=O)Nc2nccs2)cc1
inactive: UO-31 23.6 µM | SN12C 64 µM | ACHN 62.5 µM | CCRF-CEM 27 µM | RXF 393 33.4 µM | HCC 2998 18.9 µM | LOX IMVI 31.7 µM | MDA-MB-435 23.6 µM | SK-MEL-2 16 µM | NCI-H23 52.2 µM | SK-MEL-28 30.4 µM | HCT-116 33.5 µM | CAKI-1 > 100 µM | Malme-3M 30.9 µM | SNB-75 39.5 µM | OVCAR-5 > 100 µM | MCF7 26.1 µM

CC#CC(O)(C(=O)OC1CCCN(C)C1)C1=CC=CCC1 (centres undefined)
inactive: UO-31 > 100 µM | SN12C > 100 µM | ACHN > 100 µM | CCRF-CEM > 100 µM | RXF 393 > 100 µM | HCC 2998 > 100 µM | LOX IMVI > 100 µM | MDA-MB-435 > 100 µM | SK-MEL-2 > 100 µM | NCI-H23 > 100 µM | OVCAR-8 > 100 µM | IGROV-1 > 100 µM | SK-MEL-28 > 100 µM | HCT-116 > 100 µM | CAKI-1 > 100 µM | Malme-3M > 100 µM | SNB-75 > 100 µM | OVCAR-5 > 100 µM | MCF7 > 100 µM

COc1cc(C2c3cc4c(cc3[C@@H](N(C)C)[C@H]3COC(=O)C23)OCO4)cc(OC)c1O (some centres undefined)
inactive: UO-31 > 100 µM | SN12C 51.4 µM | ACHN 41.5 µM | CCRF-CEM 49.1 µM | RXF 393 86.7 µM | HCC 2998 53.6 µM | LOX IMVI 33.3 µM | SK-MEL-2 33.4 µM | NCI-H23 37.7 µM | OVCAR-8 25.5 µM | IGROV-1 72.1 µM | SK-MEL-28 14.5 µM | HCT-116 38 µM | CAKI-1 23.7 µM | Malme-3M 37.7 µM | SNB-75 93.3 µM | OVCAR-5 > 100 µM

O=C(/C=C/c1ccccc1F)c1ccc(Cl)c(Cl)c1
inactive: UO-31 40.9 µM | SN12C 35.6 µM | ACHN > 88.1 µM | CCRF-CEM 23.3 µM | RXF 393 21.9 µM | HCC 2998 24.7 µM | LOX IMVI 15.4 µM | SK-MEL-2 > 75 µM | NCI-H23 14.2 µM | OVCAR-8 33 µM | IGROV-1 34.3 µM | SK-MEL-28 > 53.1 µM | HCT-116 16.3 µM | CAKI-1 38.8 µM | Malme-3M > 92.9 µM | SNB-75 39.3 µM | OVCAR-5 > 87.1 µM
